ChEMBL document CHEMBL5380875, “Discovery of a Potent and Oral Available Complex I OXPHOS Inhibitor That Abrogates Tumor Growth and Circumvents MEKi Resistance” (J Med Chem, 2023)
Active and inactive are the calls of the source. No cut-off for these calls is given here.

Experiments:
NCI-H460 [1] = experiment: Inhibition of mitochondrial respiration in human NCI-H460 cells with high-OXPHOS assessed as reduction in spare oxygen consumption rate capacity incubated for 12 hrs by seahorse XF96 flux analyzer; type: functional, cell-based; settings: dose 50-200 nM
[2] = MRT (0 to 24 hrs) in ICR mouse at 1 mg/kg, iv measured for 24 hrs by LC-MS/MS analysis; type: ADME, organism-based; settings: in vivo
[3] = Toxicity in mouse xenografted with human NCI-H460 cells with high-OXPHOS assessed as pathological changes in heart at 30 mg/kg, po bid administered for 18 days by H and E staining based analysis; type: organism-based; settings: in vivo, 432 h, time 18 day
A549 = experiment: Inhibition of colony formation in human Trametinib-resistant A549 cells with high-OXPHOS incubated for 7 days by crystal violet staining based analysis; type: functional, cell-based; settings: dose 25-100 nM, time 7.0 day
NCI-H441 [4] = experiment: Inhibition of colony formation in human NCI-H441 cells with high-OXPHOS harboring KRAS G12V mutant incubated for 10 to 14 days in presence of trametinib by crystal violet staining based analysis; type: functional, cell-based; settings: time 10-14 day
[5] = Toxicity in mouse xenografted with human NCI-H460 cells with high-OXPHOS assessed as reduction in serum BUN level at 30 mg/kg, po bid administered for 18 days; type: organism-based; settings: in vivo, 432 h, time 18 day
NCI-H460 [6] = experiment: Inhibition of mitochondrial complex III in human NCI-H460 cells at 1 uM incubated for 12 hrs by seahorse XF96 metabolic flux analyzer relative to control; type: cell-based
Cytochrome P450 2C9 = Cytochrome P450 2C9 (Homo sapiens, UniProt P11712); experiment: Inhibition of CYP2C9 in human liver microsomes; type: ADME, Microsome
Cytochrome P450 2C9, sequence (P11712 whole entry): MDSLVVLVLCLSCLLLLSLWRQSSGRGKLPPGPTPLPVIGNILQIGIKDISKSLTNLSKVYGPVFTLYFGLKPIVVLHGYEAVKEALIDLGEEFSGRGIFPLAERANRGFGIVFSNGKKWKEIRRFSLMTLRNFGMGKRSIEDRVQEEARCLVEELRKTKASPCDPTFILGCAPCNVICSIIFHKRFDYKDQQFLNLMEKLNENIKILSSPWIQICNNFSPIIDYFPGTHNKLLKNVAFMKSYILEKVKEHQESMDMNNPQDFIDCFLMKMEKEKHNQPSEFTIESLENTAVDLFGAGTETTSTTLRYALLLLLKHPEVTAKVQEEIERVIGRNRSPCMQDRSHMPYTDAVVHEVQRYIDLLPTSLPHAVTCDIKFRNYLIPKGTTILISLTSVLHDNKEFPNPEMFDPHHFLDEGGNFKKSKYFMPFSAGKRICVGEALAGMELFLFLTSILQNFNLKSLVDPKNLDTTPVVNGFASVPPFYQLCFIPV

[7] = Toxicity in mouse xenografted with human NCI-H460 cells with high-OXPHOS assessed as reduction in body weight at 30 mg/kg, po bid administered for 18 days; type: organism-based; settings: in vivo, 432 h, time 18 day
[8] = Cmax in ICR mouse at 10 mg/kg, po measured for 24 hrs by LC-MS/MS analysis; type: ADME, organism-based; design: time 24 hrs, dose 10 mg/kg, route po; settings: in vivo
NCI-H441 [9] = experiment: Induction of apoptosis in human NCI-H441 cells with high-OXPHOS assessed as early apoptotic cells at 30 nM incubated for 48 hrs by Annexin V-FITC/propidium iodide staining based flow cytometry analysis (reference value: 1.67%); type: functional
NCI-H460 [10] = experiment: Inhibition of mitochondrial complex IV in human NCI-H460 cells at 1 uM incubated for 12 hrs by seahorse XF96 metabolic flux analyzer relative to control; type: cell-based
[11] = Toxicity in mouse xenografted with human NCI-H460 cells with high-OXPHOS assessed as reduction in serum ALT level at 30 mg/kg, po bid administered for 18 days; type: organism-based; settings: in vivo, 432 h, time 18 day
[12] = Tmax in ICR mouse at 10 mg/kg, po measured for 24 hrs by LC-MS/MS analysis; type: ADME, organism-based; settings: in vivo
[13] = Toxicity in mouse xenografted with human NCI-H460 cells with high-OXPHOS assessed as pathological changes in liver at 30 mg/kg, po bid administered for 18 days by H and E staining based analysis; type: organism-based; settings: in vivo, 432 h, time 18 day
NCI-H460 [14] = experiment: Potentiation of trametinib-induced cytotoxicity against human NCI-H460 cells with high-OXPHOS harboring KRAS Q61H mutant assessed as reduction in cell viability at 10 to 20 uM incubated for 72 hrs by CellTiter 96 cell proliferation assay; type: functional, cell-based; settings: dose 10-20 µM

MRT last at 24 h [2]: 1.5 h
IC50 (Cytochrome P450 2C9): 14.6 µM
Cmax [8]: 618 ng/mL
Tmax [12]: 1 h
SMILES: Cc1c(C(=O)N2CCN(Cc3ccc(OCC(F)(F)F)cc3)CC2)nnn1Cc1ccc(C(=O)Nc2ccc(C(F)(F)F)cc2)nc1
inhibition (NCI-H460 [1]): Dose-Dependent Effect
Activity [3]: Non-Toxic
inhibition (A549): Dose-Dependent Effect
inhibition (NCI-H441 [4]): Active
Activity [5]: Non-Toxic
inhibition (NCI-H460 [6]): 28.1%
Activity [7]: Non-Toxic
Activity (NCI-H441 [9]): 7.88%
inhibition (NCI-H460 [10]): 10.4%
Activity [11]: Non-Toxic
Activity [13]: Non-Toxic
Activity (NCI-H460 [14]): Active
